Assay results from patent US20040009273A1, “Method for the long-term preservation of meat and the meat process thereby” (priority 1996, published 2004).

How the values were obtained:
Type in all cases: cell-based
Salmonella Typhimirium = test: Growth of inoculated Salmonella Typhimirium on meat under defined atmospheres; conditions: beef; high CO (95-100%) or low (10%) CO versus untreated
Description: (§1) Studies were carried out comparing growth of inoculated pathogenic bacteria on fresh meat under three atmospheres. Air and two CO containing modified atmospheres: high CO (95-100%) and low (10%) CO. In low CO MA CO was replaced by an inert gas, nitrogen. Note that in most experiments the CO untreated control was the same for both modified atmospheres. Experiments with E coli were carried out on different meat controls.

Clostridium prefringens = test: Growth of inoculated Clostridium prefringens on meat under defined atmospheres; conditions: beef and poultry; high CO (95-100%) or low (10%) CO versus untreated
Description: as §1

[1] = system: Gram negative bacteria on the surface of meat samples; test: Bacterial growth under air, CO and N2 atmospheres, Gram negative selective plates (MacConkey); conditions: 4 g meat samples flushed with gas, 24 h at 15±3° C.; MacConkey plates overnight at 37° C.
Description: (§2) Meat samples weighing 4.00+0.18 grams, were treated by flushing with either air, CO, or N2. After twenty-four hours of storage at room temperature (15±3° C.) each of the treated meat samples was soaked in sterile 0.15M sodium chloride (1 ml per 2 grams of treated meat) for ninety minutes to extract any bacteria present on the surface of individual samples. Aliquots of serial dilutions of the extracts were plated onto non-selective agar plates (Bactoagar, Difco) and on Gram negative selective plates (MacConkey, Difco). All the plates were incubated over night at 37° C. to allow bacterial growth.

[2] = system: bacteria present on the surface of meat samples; test: Bacterial growth under air, CO and N2 atmospheres, non-selective agar plates (Bactoagar); conditions: 4 g meat samples flushed with gas, 24 h at 15±3° C.; plates overnight at 37° C.
Description: as §2

Staphylococcus aures = test: Growth of inoculated Staphylococcus aures on meat under defined atmospheres; conditions: beef; high CO (95-100%) versus untreated
Description: as §1

Listeria monocytogenes = test: Growth of inoculated Listeria monocytogenes on meat under defined atmospheres; conditions: beef and poultry; high CO (95-100%) or low (10%) CO versus untreated
Description: as §1

Pseudomonas fluorescence = test: Growth of inoculated Pseudomonas fluorescence on meat under defined atmospheres; conditions: beef and poultry; high CO (95-100%) or low (10%) CO versus untreated
Description: as §1

E coli = test: Growth of inoculated E coli on meat under defined atmospheres; conditions: beef; high CO (95-100%) or low (10%) CO versus untreated
Description: as §1

[C-]#[O+] [CO, carbon monoxide]
growth of Salmonella Typhimirium (Salmonella Typhimirium): inhibited | growth of Clostridium prefringens (Clostridium prefringens): inhibited | No of calories, Gram negative (bacterial colony counts per gram of meat, mean±SD) [1]: 0.02 ± 0.01) × 10^6 per gram of meat | No of calories, Grown on bactoagar (bacterial colony counts per gram of meat, mean±SD) [2]: (0.29 ± 0.01) × 10^6 per gram of meat | growth of Staphylococcus aures (Staphylococcus aures): inhibited | growth of Listeria monocytogenes (Listeria monocytogenes): inhibited | growth of Pseudomonas fluorescence (Pseudomonas fluorescence): inhibited | growth of E coli (E coli): inhibited

N#N [N2, nitrogen, reference compound]
No of calories, Gram negative (bacterial colony counts per gram of meat, mean±SD) [1]: (0.46 + 0.25) × 10^6 per gram of meat | No of calories, Grown on bactoagar (bacterial colony counts per gram of meat, mean±SD) [2]: (1.63 ± 0.3) × 10^6 per gram of meat
